Reference: patent US20070161581A1, “Novel aminoglycoside antibiotics effective against methicillin resistant staphylococcus auerus (mrsas)” (priority 2004, published 2007)
≈ marks a conversion by molar mass, not a printed value.

Assays:
[1] = test system: MRSA-HR; assay: Antimicrobial activity, MIC by agar plate dilution method against MRSA-HR; type: cell-based, methicillin resistant Staphylococcus aureus; conditions: Staphylococcus aureus, read-out: minimal inhibitory concentration (MIC) against MRSA-HR
Procedure: (§1) The minimal inhibitory concentration (MIC, μg/mL) against MRSAs (MRSA-HR and MRSA-LR) were measured for typical comounds of novel aminoglycoside antibiotic derivatives described in the Examples (Example 1, Example 2, Example 9, Example 13, Example 18, Example 24, Example 44, Example 45, Example 48, Example 49, Example 51, Example 52, Example 53, Example 54, and Example 76) by an agar plate dilution method based on the method based on the JAPANESE SOCIETY OF CHEMOTHERAPY. As a result, the MIC value of the compounds described in the Examples was not more than 8 against MRSA-HR and not more than 4 against MRSA-LR. The same test was carried out for arbekacin described in Japanese Patent Laid-Open No. 164696/1980.

[2] = test system: MRSA-LR; assay: Antimicrobial activity, MIC by agar plate dilution method against MRSA-LR; type: cell-based, methicillin resistant Staphylococcus aureus; conditions: Staphylococcus aureus, read-out: minimal inhibitory concentration (MIC) against MRSA-LR
Procedure: as §1

[3] = test system: P. aeruginosa PAO1; assay: Antimicrobial activity, MIC against P. aeruginosa PAO1; type: cell-based; conditions: Pseudomonas aeruginosa, read-out: minimal inhibitory concentration (MIC) against P. aeruginosa PAO1

| SMILES | MIC [1] | MIC [2] | MIC [3] |
| --- | --- | --- | --- |
| NCC[C@H](O)C(=O)NC1C[C@H](N)C(O[C@H]2OC(CN)C=CC2N)C(N)[C@H]1O[C@H]1OC(CO)[C@@H](O)C(N)C1O (some centres unmarked) [Example 48, 5-Deoxy-3′,4′-didehydro-5-epiaminoarbekacin] | ≤ 8 µg/mL | ≤ 4 µg/mL | ≤ 4 µg/mL |
| NCC[C@H](O)C(=O)NC1C[C@H](N)C(O[C@H]2OC(CN)C=CC2N)C(O)[C@H]1O[C@H]1OC(CO)[C@H](O)C(N)C1O (some centres unmarked) [Example 51, 3′,4′-Didehydro-5,4″-diepiarbekacin] | ≤ 8 µg/mL | ≤ 4 µg/mL | ≤ 4 µg/mL |
| NCC[C@H](O)C(=O)NC1C[C@H](N)C(O[C@H]2OC(CN)C=CC2N)C(F)[C@H]1O[C@H]1OC(CO)[C@H](O)C(N)C1O (stereo partly drawn) [Example 52, 5-Deoxy-3′,4′-didehydro-4″-epi-5-epifluoroarbekacin] | ≤ 8 µg/mL | ≤ 4 µg/mL | ≤ 4 µg/mL |
| NCC[C@H](O)C(=O)NC1C[C@H](N)C(O[C@H]2OC(CN)C=CC2N)C(N)[C@H]1O[C@H]1OC(CO)[C@H](O)C(N)C1O (stereo partly drawn) [Example 53, 5-Deoxy-3′,4′-didehydro-4″-epi-5-epiaminoarbekacin] | ≤ 8 µg/mL | ≤ 4 µg/mL | ≤ 4 µg/mL |
| NCC[C@H](O)C(=O)NC1C[C@H](N)C(O[C@H]2OC(CN)C=CC2N)C(O)[C@H]1O[C@H]1OC(CO)CC(N)C1O (some centres unmarked) [Example 54, 4″-Deoxy-3′,4′-didehydro-5-epiarbekacin] | ≤ 8 µg/mL | ≤ 4 µg/mL | ≤ 4 µg/mL |
| NCC[C@H](O)C(=O)NC1C[C@H](N)C(O[C@H]2OC(CN)CCC2N)C(O)[C@H]1O[C@H]1OC(C(O)CN)[C@@H](O)C(N)C1O (some centres unmarked) [Example 76, 6″-Aminomethylarbekacin] | ≤ 8 µg/mL | ≤ 4 µg/mL | ≤ 4 µg/mL |
| NCC[C@H](O)C(=O)N[C@@H]1C[C@H](N)[C@@H](O[C@H]2O[C@H](CN)CC[C@H]2N)[C@H](O)[C@H]1O[C@H]1O[C@H](CO)[C@@H](O)[C@H](N)[C@H]1O [arbekacin, (S)-1-N-(4-amino-2-hydroxybutyroyl)dibekacin, reference compound] | 64 µg/mL (≈ 116 µM) | 16 µg/mL (≈ 29 µM) | – |

Next, values leading:

| MIC [1] | MIC [2] | MIC [3] | SMILES |
| --- | --- | --- | --- |
| ≤ 8 µg/mL | ≤ 4 µg/mL | ≤ 4 µg/mL | NCC[C@H](O)C(=O)NC1C[C@H](N)C(O[C@H]2OC(CN)CCC2N)C(O)[C@H]1O[C@H]1OC(CO)[C@H](O)C(N)C1O (some centres unmarked) [Example 1, 5,4″-diepiarbekacin] |
| ≤ 8 µg/mL | ≤ 4 µg/mL | ≤ 4 µg/mL | NCC[C@H](O)C(=O)NC1C[C@H](N)C(O[C@H]2OC(CN)CCC2N)C(F)[C@H]1O[C@H]1OC(CO)[C@H](O)C(N)C1O (stereo partly drawn) [Example 2, 5-Deoxy-4″-epi-5-epifluoroarbekacin] |
| ≤ 8 µg/mL | ≤ 4 µg/mL | ≤ 4 µg/mL | NCC1CCC(N)[C@@H](OC2C(O)[C@@H](O[C@H]3OC(CO)[C@H](O)C(N)C3O)C(NC(=O)[C@@H](O)CN)C[C@@H]2N)O1 (stereo partly drawn) [Example 9, 1-N-[(S)-(3-amino-2-hydroxypropanoyl)]-5,4″-diepidibekacin] |
| ≤ 8 µg/mL | ≤ 4 µg/mL | ≤ 4 µg/mL | NCC[C@H](O)C(=O)NC1C[C@H](N)C(O[C@H]2OC(CN)CCC2N)C(O)[C@H]1O[C@H]1OC(CO)[C@@H](O)C(N)C1O (some centres unmarked) [Example 13, 5-Epiarbekacin] |
| ≤ 8 µg/mL | ≤ 4 µg/mL | ≤ 4 µg/mL | NCC[C@H](O)C(=O)NC1C[C@H](N)C(O[C@H]2OC(CN)CCC2N)C(N)[C@H]1O[C@H]1OC(CO)[C@@H](O)C(N)C1O (some centres unmarked) [Example 18, 5-Deoxy-5-epiaminoarbekacin] |
| ≤ 8 µg/mL | ≤ 4 µg/mL | ≤ 4 µg/mL | NCCNC1C(O[C@H]2OC(CN)CCC2N)[C@@H](N)CC(NC(=O)[C@@H](O)CCN)[C@@H]1O[C@H]1OC(CO)[C@@H](O)C(N)C1O (stereo partly drawn) [Example 24, 5-Deoxy-5-epi(2-aminoethyl)aminoarbekacin] |
| ≤ 8 µg/mL | ≤ 4 µg/mL | ≤ 4 µg/mL | NCC[C@H](O)C(=O)NC1C[C@H](N)C(O[C@H]2OC(CN)C=CC2N)C(O)[C@H]1O[C@H]1OC(CO)[C@@H](O)C(N)C1O (some centres unmarked) [Example 44, 3′,4′-didehydro-5-epiarbekacin] |
| ≤ 8 µg/mL | ≤ 4 µg/mL | ≤ 4 µg/mL | NCC[C@H](O)C(=O)NC1C[C@H](N)C(O[C@H]2OC(CN)C=CC2N)C(F)[C@H]1O[C@H]1OC(CO)[C@@H](O)C(N)C1O (some centres unmarked) [Example 45, 5-Deoxy-3′,4′-didehydro-5-epifluoroarbekacin] |
